Target: human RIP1 kinase domain (2-375) (Homo sapiens (Human), UniProt Q13546)
Test: biochemical
Format: biochemical
Details: Table 1; apparent Ki (Morrison tight-binding fit); 50 nM RIP1 kinase domain, 50 uM ATP, 2 hours incubation; read-out: RIP1 Ki
Outline: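 50 nM purified kinase domain from baculovirus-infected insect cells, incubated 2 h with compound in 50 mM Hepes pH 7.5, 30 mM MgCl2, 1 mM DTT, 50 uM ATP, 0.002% Brij-35, 0.5% DMSO. ADP formation read by Transcreener FP at 633 nm excitation. Ki^app fitted with the Morrison tight-binding equation.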

Chain of human RIP1 kinase domain (2-375) (Q13546 2-375): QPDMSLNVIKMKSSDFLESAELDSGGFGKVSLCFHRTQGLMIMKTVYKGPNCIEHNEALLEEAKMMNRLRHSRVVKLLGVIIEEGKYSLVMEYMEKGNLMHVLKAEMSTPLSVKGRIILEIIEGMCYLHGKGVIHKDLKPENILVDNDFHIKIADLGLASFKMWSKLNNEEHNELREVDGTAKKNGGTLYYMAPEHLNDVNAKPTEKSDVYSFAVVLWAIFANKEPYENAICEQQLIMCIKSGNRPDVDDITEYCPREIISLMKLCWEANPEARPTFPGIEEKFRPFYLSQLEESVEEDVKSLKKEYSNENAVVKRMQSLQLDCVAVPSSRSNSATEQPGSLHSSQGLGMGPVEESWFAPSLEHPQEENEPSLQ

| SMILES | Ki |
| --- | --- |
| CN1C(=O)[C@@H](NC(=O)c2n[nH]c3c2CC2CC2(C)C3)COc2ccccc21 (stereo partly drawn) [Example 1, 5a-methyl-N—((S)-5-methyl-4-oxo-2,3,4,5-tetrahydrobenzo[b][1,4]oxazepin-3-yl)-1,4,4a,5,5a,6-hexahydrocyclopropa[f]indazole-3-carboxamide] | 4.7 µM |

Same assay, conditions: Table 5; apparent Ki (Morrison tight-binding fit); 50 nM RIP1 kinase domain, 50 uM ATP, 2 hours incubation; read-out: Ki

| Ki | SMILES |
| --- | --- |
| 0.068 µM | CN1C(=O)[C@@H](NC(=O)c2ncn(Cc3ccccc3)n2)CCn2nc(CNCC(F)(F)F)cc21 (single isomer, unassigned) [Example 789] |
| 0.171 µM | CN1C(=O)C(NC(=O)c2ncn(Cc3ccccc3)n2)CCn2nc(-c3cnn(C)c3)cc21 (racemic) [Example 778, 1-benzyl-N-(4-methyl-2-(1-methyl-1H-pyrazol-4-yl)-5-oxo-5,6,7,8-tetrahydro-4H-pyrazolo[1,5-a][1,3]diazepin-6-yl)-1H-1,2,4-triazole-3-carboxamide] |
| 0.337 µM | CN1C(=O)[C@@H](NC(=O)c2ncn(Cc3ccccc3F)n2)CCn2nc(CCN3CC(F)C3)cc21 [Example 770, 1-[(2-fluorophenyl)methyl]-N-[(6S)-2-[2-(3-fluoroazetidin-1-yl)ethyl]-4-methyl-5-oxo-7,8-dihydro-6H-pyrazolo[1,5-a][1,3]diazepin-6-yl]-1,2,4-triazole-3-carboxamide] |

Same assay, conditions: human RIP1 kinase domain (2-375), 50 uM ATP, 2 hours incubation, Transcreener ADP assay; read-out: RIP1 Ki

| Ki | SMILES |
| --- | --- |
| 0.11 µM | CN1C(=O)C(NC(=O)c2ncn(Cc3ccccc3)n2)CCn2nc3c(c21)CCCC3 (centres unmarked) [Example 136, 1-benzyl-N-(1-methyl-2-oxo-2,3,4,5,8,9,10,11-octahydro-1H-[1,3]diazepino[1,2-b]indazol-3-yl)-1H-1,2,4-triazole-3-carboxamide] |
| 0.189 µM | CC(c1ccccc1)c1nnc(C(=O)N[C@H]2CCn3nccc3N(C)C2=O)[nH]1 (stereo partly drawn) [Example 100, N—((S)-4-methyl-5-oxo-5,6,7,8-tetrahydro-4H-pyrazolo[1,5-a][1,3]diazepin-6-yl)-5-(1-phenylethyl)-4H-1,2,4-triazole-3-carboxamide] |
| 0.106 µM | Cc1ncn2c1N(C)C(=O)C(NC(=O)c1ncn(Cc3ccccc3)n1)CC2 (centres unmarked) [Example 215, 1-benzyl-N-(1,9-dimethyl-2-oxo-2,3,4,5-tetrahydro-1H-imidazo[1,5-a][1,3]diazepin-3-yl)-1H-1,2,4-triazole-3-carboxamide] |
| 0.0254 µM | CN1C(=O)[C@@H](NC(=O)c2ncc3c(n2)C(C)(C)SC3)COc2ccccc21 [Example 218, (S)-7,7-dimethyl-N-(5-methyl-4-oxo-2,3,4,5-tetrahydrobenzo[b][1,4]oxazepin-3-yl)-5,7-dihydrothieno[3,4-d]pyrimidine-2-carboxamide] |
| 0.0391 µM | CC(C)C1CCc2cnc(C(=O)N[C@H]3COc4ccccc4N(C)C3=O)n2C1 (stereo partly drawn) [Example 173, 6-isopropyl-N—((S)-5-methyl-4-oxo-2,3,4,5-tetrahydrobenzo[b][1,4]oxazepin-3-yl)-5,6,7,8-tetrahydroimidazo[1,5-a]pyridine-3-carboxamide] |
| 0.411 µM | CCC1(C)OCc2nnc(C(=O)N[C@H]3COc4ccccc4N(C)C3=O)cc21 (stereo partly drawn) [Example 201, 5-ethyl-5-methyl-N—((S)-5-methyl-4-oxo-2,3,4,5-tetrahydrobenzo[b][1,4]oxazepin-3-yl)-5,7-dihydrofuro[3,4-c]pyridazine-3-carboxamide] |

Further lines, the compound ahead of its results:

| SMILES | Ki |
| --- | --- |
| CN1C(=O)[C@@H](NC(=O)c2ncn(Cc3ccc(F)cc3F)n2)CCn2nc(C3CC3)cc21 [Example 224, (S)—N-(2-cyclopropyl-4-methyl-5-oxo-5,6,7,8-tetrahydro-4H-pyrazolo[1,5-a][1,3]diazepin-6-yl)-1-(2,4-difluorobenzyl)-1H-1,2,4-triazole-3-carboxamide] | 0.0219 µM |
| Cc1cc2n(n1)CC[C@H](NC(=O)c1ncn(CC3CCCCC3)n1)C(=O)N2C [Example 163, (S)-1-(cyclohexylmethyl)-N-(2,4-dimethyl-5-oxo-5,6,7,8-tetrahydro-4H-pyrazolo[1,5-a][1,3]diazepin-6-yl)-1H-1,2,4-triazole-3-carboxamide] | 0.0223 µM |
| CN1C(=O)C(NC(=O)c2cn(Cc3ccc(F)c(F)c3)cn2)CCn2ccnc21 (centres unmarked) [Example 178, 1-(3,4-difluorobenzyl)-N-(9-methyl-8-oxo-6,7,8,9-tetrahydro-5H-imidazo[1,2-a][1,3]diazepin-7-yl)-1H-imidazole-4-carboxamide] | 0.477 µM |
| CN1C(=O)C(NC(=O)c2ncn(Cc3ccccc3)n2)CCn2nc3ccccc3c21 (centres unmarked) [Example 110, 1-benzyl-N-(1-methyl-2-oxo-2,3,4,5-tetrahydro-1H-[1,3]diazepino[1,2-b]indazol-3-yl)-1H-1,2,4-triazole-3-carboxamide] | 0.0652 µM |

Same assay, conditions: human RIP1 kinase domain (2-375), Transcreener ADP assay, 50 uM ATP, 2 hours incubation; read-out: RIP1 Ki

| Ki | SMILES |
| --- | --- |
| 0.557 µM | CC[C@@]1(C)OCc2cnc(C(=O)NC3CCn4cncc4N(C)C3=O)cc21 (stereo partly drawn) [Example 294, (1R)-1-ethyl-1-methyl-N-(1-methyl-2-oxo-2,3,4,5-tetrahydro-1H-imidazo[1,5-a][1,3]diazepin-3-yl)-1,3-dihydrofuro[3,4-c]pyridine-6-carboxamide] |

Same assay, conditions: tight-binding apparent inhibition constant; human RIP1 kinase domain (2-375) 50 nM, 50 uM ATP, 2 hours; read-out: Ki

| Ki | SMILES |
| --- | --- |
| 0.011 µM | Cc1cc2n(n1)CC[C@H](NC(=O)c1nc3n(n1)[C@@H](c1ccccc1)CC3)C(=O)N2C [Example 615, (5R)-5-phenyl-N-[(6S)-2,4-dimethyl-5-oxo-7,8-dihydro-6H-pyrazolo[1,5-a][1,3]diazepin-6-yl]-6,7-dihydro-5H-pyrrolo[1,2-b][1,2,4]triazole-2-carboxamide] |
| 0.488 µM | CN1C(=O)C(NC(=O)c2ncn(Cc3ccccc3)n2)CCn2nc(C(C)(C)O)cc21 (racemic) [Example 372, 1-benzyl-N-[2-(1-hydroxy-1-methyl-ethyl)-4-methyl-5-oxo-7,8-dihydro-6H-pyrazolo[1,5-a][1,3]diazepin-6-yl]-1,2,4-triazole-3-carboxamide] |

More lines, now with the values behind:

| SMILES | Ki |
| --- | --- |
| O=C(N[C@H]1COc2cc(F)cc(F)c2NC1=O)c1nc2n(n1)CCC2c1ccccc1 (stereo in doubt) [Example 625, (7S)-7-phenyl-N-[(3S)-6,8-difluoro-4-oxo-3,5-dihydro-2H-1,5-benzoxazepin-3-yl]-6,7-dihydro-5H-pyrrolo[1,2-b][1,2,4]triazole-2-carboxamide] | 0.45 µM |
| CN1C(=O)[C@H](NC(=O)c2ncn(Cc3c(F)cccc3F)n2)CCn2ccnc21 [Example 602, 1-[(2,6-difluorophenyl)methyl]-N-[(7R)-9-methyl-8-oxo-6,7-dihydro-5H-imidazo[1,2-a][1,3]diazepin-7-yl]-1,2,4-triazole-3-carboxamide] | 0.031 µM |
| Cc1cc2n(n1)CC[C@H](NC(=O)c1ncc3c(n1)C1(CCCOC1)OC3)C(=O)N2C (stereo partly drawn) [Example 544, N-[(6S)-2,4-dimethyl-5-oxo-7,8-dihydro-6H-pyrazolo[1,5-a][1,3]diazepin-6-yl]spiro[5H-furo[3,4-d]pyrimidine-7,3′-tetrahydropyran]-2-carboxamide] | 1.2 µM |
| Cc1cc2n(n1)CC[C@H](NC(=O)c1nnc(Cc3cccc(F)c3F)[nH]1)C(=O)N2C [Example 513, 5-[(2,3-difluorophenyl)methyl]-N-(6S)-2,4-dimethyl-5-oxo-7,8-dihydro-6H-pyrazolo[1,5-a][1,3]diazepin-6-yl-4H-1,2,4-triazole-3-carboxamide] | 0.029 µM |
| CN1C(=O)[C@@H](NC(=O)c2ncn(Cc3cccc(F)c3)n2)CCn2nc(C3CC3)cc21 [Example 531] | 0.014 µM |
| O=C(N[C@H]1COc2cc(F)cc(F)c2NC1=O)c1nc2cccc(C3CCOCC3)n2n1 [Example 422, (S)—N-(6,8-difluoro-4-oxo-2,3,4,5-tetrahydrobenzo[b][1,4]oxazepin-3-yl)-5-(tetrahydro-2H-pyran-4-yl)-[1,2,4]triazolo[1,5-a]pyridine-2-carboxamide] | 0.0274 µM |

From patent publication US10988459B2 (priority 2015, dated 2021)
